Each block holds one compound with its values, some of them ahead of it.
How the values were obtained:
Trypsin = target: T1, Trypsin (Sus scrofa, UniProt P00761); assay: Trypsin inhibition by health supplements in confluent A549 cells (cell detachment, crystal violet staining, microscopy); format: cell-based; conditions: for concentration at end point dilution of trypsin inhibition: FIG. 11, 0.125% trypsin, serial dilutions in 24 well plate; for concentration at end point of trypsin inhibitory effects: FIG. 13, cell morphology under microscope vs cell and trypsin control
T1 construct: purchased Gibco Lot no-2455123
Method: In a preferred embodiment, supplements are diluted two to five-fold dilutions (where ever necessary) in PBS (pH 7.4) either as single component and/or various combinations and tested in cell lines grown in either 6, 12, 24 and/or 48 well plates. Cell (CC) and trypsin control (TC) were kept as protease negative and positive indicators in every experiment. Trypsin-EDTA (Gibco Lot no-2455123, Canada) was added into all wells (0.125%) expect cell control wells.
(§1) Fluids from the plate was discarded and washed twice with PBS. Following wash the plate was stained with 1% crystal violet in […] at room temperature for 5 minutes. Following incubation, crystal violet from each well was discarded and washed two to three times with PBS and removed any excess dye from each well.
(§2) Health supplements were collected from pharmaceutical laboratory and were randomly screened in one of the lungs cancer cell lines called A549 for their protease inhibitory effects. Cells were cultivated in 6 well plate using standard technique until confluent. Once the plate is ready, culture media from each well were removed and washed two times with PBS. Following wash, 500 μl of supplements at appropriate dilutions were added into well followed by 500 μl of trypsin (0.25%) to each well except the well having cell control (CC). Plate was incubated at 37° C. and checked at every 5 minutes to see the effect of trypsin on cell morphology. Once cells in trypsin control well lift off from the surface, discard fluid from all wells, wash two times with PBS and stained cells by 1% crystal violet (in alcohol) for two-three minutes. Following staining wells were washed 2-3 times with PBS in order to remove excess dye and finally checked the cell morphology using inverted microscope as well as by naked eye (FIG. 7, 8).
A further experiment was conducted using serine proteases (Trypsin and Elastase) against two formulations of health supplements such as Vitamin C and combination Vitamins C (PC Drug Center Ltd, Bangkok, Thailand) with Thiamine (B1-Roche, lot no: 8077395)) and Pyridoxine (B6, Roche, lot no: 8079496). This formulation of three vitamins is designed as tbc and experiment was conducted in six well plate with confluent A549 cells using technique described in [0044].
The end point of trypsin inhibition of each supplement was calculated in terms of μg/ml. The cell morphologies were also observed by under inverted microscope (4×10) and are shown FIG. 12-15.

Elastase = target: T2, Elastase (Sus scrofa, UniProt P00772); assay: Elastase inhibition by health supplements in confluent A549 cells (cell detachment, crystal violet staining, microscopy); format: cell-based
T2 construct: purchased SIGMA E017-5 mg
Method: as §1
In a solution of the preferred inhibitor of the present invention in which the inhibitor and trypsin are present in a concentration greater 0.355 mM verses 0.524 mM such inhibitor would react >95% of an equivalent molecular amount of trypsin.
as §2, with “Following staining wells were washed 2-3 times with PBS in order to remove excess dye and finally checked the cell morphology using inverted microscope as well as by naked eye (FIG. 7, 8).” left out

[1] = FIG. 12, trypsin at 1.25% concentration, microscopy

T1 sequence (P00761 9-231): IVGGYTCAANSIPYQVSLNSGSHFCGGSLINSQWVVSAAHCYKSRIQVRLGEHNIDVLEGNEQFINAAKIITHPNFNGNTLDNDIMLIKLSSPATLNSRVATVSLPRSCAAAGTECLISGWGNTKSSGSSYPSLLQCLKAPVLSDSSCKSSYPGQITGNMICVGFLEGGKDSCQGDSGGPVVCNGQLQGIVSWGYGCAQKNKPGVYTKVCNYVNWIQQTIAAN
T2 sequence (P00772 27-266): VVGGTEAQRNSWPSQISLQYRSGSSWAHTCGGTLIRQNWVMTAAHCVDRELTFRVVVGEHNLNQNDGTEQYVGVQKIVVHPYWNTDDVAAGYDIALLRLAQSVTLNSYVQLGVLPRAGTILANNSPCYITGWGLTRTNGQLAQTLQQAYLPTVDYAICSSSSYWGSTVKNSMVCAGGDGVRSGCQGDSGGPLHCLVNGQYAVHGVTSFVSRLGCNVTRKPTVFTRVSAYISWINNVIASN

- level of inhibition against trypsin (Trypsin; FIG. 9, A549, six well plate, 1.25% trypsin, Ascorbic acid 2.5% alone or tbc (Ascorbic acid 2.5%, Thiamine 0.1%, Pyridoxine 0.15%)): good level of inhibition
- level of inhibition against elastase (Elastase; FIG. 9, A549, six well plate, 0.5% elastase, Ascorbic acid 2.5% alone or tbc (Ascorbic acid 2.5%, Thiamine 0.1%, Pyridoxine 0.15%)): good level of inhibition
SMILES: O=C1O[C@H]([C@@H](O)CO)C(O)=C1O [vitamin C, Ascorbic acid]
- inhibition of enzymatic activities of Trypsin (T) (Trypsin; FIG. 7, A549 cells, compared with cell control (CC) and trypsin control (TC)): showed inhibitions of enzymatic activities
- inhibition of enzymatic activities of Elastase (E) (Elastase; FIG. 7, A549 cells, compared with cell control (CC) and elastase control (EC)): showed inhibitions of enzymatic activities

- concentration at end point dilution of trypsin inhibition (Trypsin): 0.25%
- concentration efficiently neutralizing catalytic activities of trypsin (Trypsin; [1]): 0.25%
- concentration from which capability of neutralization of trypsin starts to be lost (Trypsin; [1]): 0.125%
SMILES: O=C1O[C@H]([C@@H](O)CO)C(O)=C1O [AC-1, Ascorbic acid]

- concentration at end point dilution of trypsin inhibition (Trypsin): 0.5%
- concentration at end point of trypsin inhibitory effects (Trypsin): 0.5%
SMILES: Cc1ncc(CO)c(CO)c1O [B6, Pyridoxine]

- concentration at end point dilution of trypsin inhibition (Trypsin): 1.0%
- concentration at end point of trypsin inhibitory effects (Trypsin): 1.0%
SMILES: Cc1ncc(C[n+]2csc(CCO)c2C)c(N)n1 [B1, Thiamine]
